# Reference: paper PMC2662877, “A novel method for screening the glutathione transferase inhibitors” (BMC Biochemistry, 2009)
# No end group written: not given here.
# Tests used:
# GST [1] = molecular target: T1, GST (Schistosoma japonicum, UniProt P08515); assay: biochemical; type: biochemical; details: inhibitor 1 μM, DCNB 1 mM, glutathione 1 mM, 25°C; for Specific GST activity: mean ± SD of triplicate, control 4.51 ± 0.02
# T1 construct: purchased Sigma-Aldrich
# GST [2] = molecular target: T1, GST; assay: biochemical; type: biochemical; details: for Specific GST activity: mean ± SD of triplicate, control 2.80 ± 0.01; for order of inhibition efficiencies: with the use of CDNB or DCNB as the substrates, inhibitors 1 μM; for inhibition of GST activity, in words: control peptides, CDNB or DCNB as substrates
# Experimental: Figure 3 Effects of F1 and F2 peptides on the activity of GST (μmol/mg/min). The activity was measured by monitoring the GST activity with different peptide concentrations, 1 mM glutathione (GSH) and 1 mM CDNB in 100 mM potassium phosphate buffer (pH6.5) at 25°C.
# (§1) The peptide concentration resulting in 50% inhibition (IC50) was determined from a plot of remaining activity versus peptide concentration. Protein concentration was measured according to the Lowry method. Enzyme inhibitory kinetic studies were carried out using various concentrations of glutathione and CDNB and different concentrations of synthetic peptides (0.8, 1.6, 3.2 μM).
# GST [3] = details: first-generation GST inhibitors; no reference given; cited from earlier work
# Text: (§2) The development of resistance to anticancer agents is a primary concern in cancer chemotherapy.
# GST [4] = molecular target: T1, GST; assay: biochemical; type: biochemical; details: for effect on Vmax and Km, in words: changing glutathione and peptide concentrations
# Experimental: To obtain information on the nature of the inhibition by F1 and F2 peptides, GST activity was measured with variable concentrations of glutathione. Here, we applied a new model in describing enzyme inhibitor (Fig. 4).
# The Lineweaver-Burk plot for glutathione as the variable peptide concentration was applied to determine the types of inhibition caused by F1 and F2 peptides. The plot provides a useful graphical method for analysis of the Michaelis-Menten equation. The effects of the peptide on GST-catalyzed reaction kinetics were determined by analysis of apparent Vmax, inhibitor constant Ki and [I]/Ki values.
# Figure 5 Lineweaver-Burk plot of the GST activity with varying glutathione (GSH) concentrations. A): The activity was measured with 1 mM CDNB, and different concentrations of GSH, and the F1 peptide. B): The activity was measured with 1 mM CDNB, and different concentrations of GSH, and the F2 peptide.
# as §1
# [5] = binding of synthesized peptides to glutathione Sepharose 4B beads; details: for binding to glutathione Sepharose 4B beads, in words: control peptides lacking glutathione-interacting residues
# Experimental: The binding characteristics of selected peptides to glutathione were determined according to the analysis of binding of synthesized peptides to the glutathione Sepharose 4B beads. The amount of glutathione in the glutathione Sepharose 4B beads was estimated according to the assumption (according to the manufacturere's information) that there are about 200–400 μmol glutathione/g dried beads. An average value of 300 μmol glutathione/g dried beads was used to calculate the amount of glutathione in the glutathione Sepharose 4B beads. In our experiments, appropriate amount of wet glutathione Sepharose 4B beads (equal to 1 mg dry beads) was added to a 1.5 ml Eppendorf tube, and different amounts of synthesized peptides were added into the tube. After binding for 10 min at 37°C, the binding complexes were separated by centrifugation (12,000 × g for 10 min) and concentrations of bound and free peptides were determined by using the Lowry method. Scatchard analysis was used to determine the Kd and Bmax values. Bmax means the maximum binding sites of synthesized peptide on glutathione Speharose 4B beads (μmol peptide/μmol glutathione). Kd is a dissociation constant (pM). Thus, a low Kd value indicates a high affinity.
# [6] = tested on: cancer cell lines with increased GST expression; details: ref [25]; cited from earlier work
# Text: as §2
# [7] = inhibitor 1 μM, CDNB 1 mM, glutathione 1 mM, 25°C
# [8] = control 100%, % sign missing in F1 cell
# [9] = inhibitor 1 μM, CDNB 1 mM, glutathione 1 mM, 25°C, control 100%
# [10] = after elution with elution buffer
# [11] = before elution, ratio of peptide concentrations after and before binding
# T1 sequence (P08515 whole entry): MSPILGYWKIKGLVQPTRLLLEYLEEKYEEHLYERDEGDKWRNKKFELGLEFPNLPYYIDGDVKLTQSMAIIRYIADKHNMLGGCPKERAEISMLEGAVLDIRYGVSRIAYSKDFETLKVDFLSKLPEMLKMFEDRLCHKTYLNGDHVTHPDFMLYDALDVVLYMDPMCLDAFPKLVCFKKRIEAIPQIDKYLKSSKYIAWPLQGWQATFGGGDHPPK
compound,measurement,setting,value
C=C(CC)C(=O)c1ccc(OCC(=O)O)c(Cl)c1Cl [ethacrynic acid],Specific GST activity,GST [1],3.66 ± 0.02 units/mg
same,Specific GST activity,GST [2]; [7],1.54 ± 0.01 units/mg
same,outcome in clinical trials,GST [3],unsuccessful in clinical trials
KWRNKKFELGLEFPNL [F2 peptide],IC50,GST [2],600 nM
same,Ki,"GST [4]; F2 peptide 0.8 μM, competitive",1530 nM
same,Ki,"GST [4]; F2 peptide 1.6 μM, competitive",1600 nM
same,Ki,"GST [4]; F2 peptide 3.2 μM, competitive",2420 nM
same,"effect on Vmax and Km, in words",GST [4],Km decreased while Vmax remained unchanged
tannic acid,"GST activity remaining, % of control",GST [1]; [8],10.9%
same,Specific GST activity,GST [1],0.49 ± 0.01 units/mg
same,"GST activity remaining, % of control",GST [2]; [9],5.6%
same,Specific GST activity,GST [2]; [7],0.16 ± 0.01 units/mg
same,order of inhibition efficiencies,GST [2],tannic acid > cibacron blue > F2 peptide > hematin > F1 peptide > ethacrynic acid
GYWKIKGLV [F1 peptide],IC50,GST [2],800 nM
same,Ki,"GST [4]; F1 peptide 0.8 μM, noncompetitive",4000 nM
same,Ki,"GST [4]; F1 peptide 1.6 μM, noncompetitive",4570 nM
same,Ki,"GST [4]; F1 peptide 3.2 μM, noncompetitive",5820 nM
same,"effect on Vmax and Km, in words",GST [4],Vmax decreased while Km remained unchanged
"KWNKFELGLEFPL [F4 peptide, control peptide F4, lacking Arg41, Lys44 and Asn53 residues]",Binding efficiency,[5]; [10],2.5%
same,Binding efficiency,[5]; [11],2.6%
same,"binding to glutathione Sepharose 4B beads, in words",[5],could not bind efficiently
same,"inhibition of GST activity, in words",GST [2],could not find any significant inhibition of the GST activity
C=C[C@H]1C[N@@]2CC[C@H]1C[C@H]2[C@H](O)c1ccnc2ccc(OC)cc12 [quinine],reversal of resistance to melphalan and doxorubicin,[6],reported to reverse the resistance to melphalan and doxorubicin
C=CC1=C(C)c2cc3[n-]c(cc4[n-]c(cc5nc(cc1n2)C(C)=C5C=C)c(C)c4CCC(=O)O)c(CCC(=O)O)c3C.O.[Fe+2] [hematin],"GST activity remaining, % of control",GST [1]; [8],42.1%
same,Specific GST activity,GST [1],1.90 ± 0.02 units/mg
same,"GST activity remaining, % of control",GST [2]; [9],35.2%
same,Specific GST activity,GST [2]; [7],0.99 ± 0.01 units/mg
same,order of inhibition efficiencies,GST [2],tannic acid > cibacron blue > F2 peptide > hematin > F1 peptide > ethacrynic acid
"GKIKGV [F3 peptide, control peptide F3, lacking Tyr6, Trp7 and Leu12]",Binding efficiency,[5]; [10],1.2%
same,Binding efficiency,[5]; [11],1.2%
same,"binding to glutathione Sepharose 4B beads, in words",[5],could not bind efficiently
same,"inhibition of GST activity, in words",GST [2],could not find any significant inhibition of the GST activity
Nc1c(S(=O)(=O)O)cc(Nc2ccc(Nc3nc(Cl)nc(Nc4ccccc4S(=O)(=O)O)n3)c(S(=O)(=O)O)c2)c2c1C(=O)c1ccccc1C2=O [cibacron blue],remaining activity at 1 µM,GST [1]; [8],21.3%
same,Specific GST activity,GST [1],0.96 ± 0.01 units/mg
same,remaining activity at 1 µM,GST [2]; [9],18.3%
same,Specific GST activity,GST [2]; [7],0.51 ± 0.01 units/mg
same,order of inhibition efficiencies,GST [2],tannic acid > cibacron blue > F2 peptide > hematin > F1 peptide > ethacrynic acid
